{"source": "patent US9289400B2", "about": "“D3 dopamine receptor agonists to treat dyskinesia in parkinson's disease” (priority 2010, dated 2016)", "key": {"D2S dopamine receptor [1]": {"molecular_target": "T1, D2S dopamine receptor (Homo sapiens (Human), UniProt P14416)", "T1 sequence (P14416 other isoform, or with tags, fused parts or gaps)": "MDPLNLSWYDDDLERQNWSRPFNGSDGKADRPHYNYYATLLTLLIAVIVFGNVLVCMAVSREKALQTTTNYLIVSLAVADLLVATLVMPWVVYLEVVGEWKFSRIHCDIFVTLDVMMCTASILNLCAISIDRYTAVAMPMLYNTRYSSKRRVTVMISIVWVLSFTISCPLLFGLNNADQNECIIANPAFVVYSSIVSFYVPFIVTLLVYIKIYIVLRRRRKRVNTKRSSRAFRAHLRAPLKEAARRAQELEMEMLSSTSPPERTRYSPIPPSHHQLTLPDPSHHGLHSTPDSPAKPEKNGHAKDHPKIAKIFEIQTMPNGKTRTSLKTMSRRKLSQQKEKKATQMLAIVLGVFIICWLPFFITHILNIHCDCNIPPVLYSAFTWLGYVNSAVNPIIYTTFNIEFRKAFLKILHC", "test": "Adenylyl cyclase inhibition (forskolin-induced cAMP) in AtT-20 cells stably expressing D2S", "assay_type": "cell-based", "settings": "for EC50: AtT-20 cells; for Adenylyl cyclase inhibition: agonist type: versus full agonist quinpirole", "method": "In the second functional assay, the ability of D2-like dopamine receptors to inhibit adenylyl cyclase activity is assessed. The ability of the lead compound to dose-dependently decrease forskolin-induced cAMP levels is measured. The IC50 values for each receptor subtype is determined by fitting the data points using the Hill equation. Previously, the EC50 and IC50 values for dopamine and quinpirole has been determined in these cell lines in both functional assays.\n(§1) AtT-20 mouse pituitary cells were grown in Ham's F10 medium with 5% FBS, 10% heat-inactivated horse serum, 2 mM glutamine and 50 μg/ml gentamicin (Invitrogen, Carlsbad, Calif.). AtT-20 cells stabling expressing the human D2S, D2L, D3, and D4.2 and receptor were maintained in the above F10 culture media supplemented with 500 μg/ml G418 (Invitrogen). For electrophysiological characterization, cells were plated onto glass coverslips coated with 40 μg/ml poly L-lysine (Sigma-Aldrich). The generation and characterization of the AtT-20 cells stably expressing various human dopamine receptors have been previously reported (Kuzhikandathil & Oxford, 2000, J. Gen. Physiol. 115:697-706; Kuzhikandathil et al., 1998, Mol. Cell. Neurosci. 12:390-402; Kuzhikandathil & Bartoszyk, 2006, Neuropharm. 51:873-884; Westrich & Kuzhikandathil, 2007, Biochim. Biophys. Acta-MCR 1773:1747-1758; Kuzhikandathil et al., 2004, Mol. Cell. Neurosci. 26:144-155; Westrich et al., 2010, Biochem. Pharmacol. 79:897-907).\nCyclic AMP (cAMP) levels were assessed using the cAMP Biotrak Enzymeimmunoassay (EIA) kit (GE Healthcare, Piscataway, N.J., USA) as described previously (Kuzhikandathil & Bartoszyk, 2006, Neuropharm. 51:873-884). The cAMP levels in each treated sample were assayed in triplicate and the entire experiment repeated three independent times.\n(§2) To compare the functional effects of the new class of D3 receptor agonists, PBZI (Table 2) and ES609 (Table 3) were tested on AtT-20 cells stably expressing human D3, D2S, D2L or D4.2. Functional efficacy was determined by assessing the ability of PBZI and ES609 to inhibit adenylyl cyclase or activate GIRK channels coupled to these “D2-like” dopamine receptors. The EC50 values of PBZI and ES609 for inhibiting adenylyl cyclase and activating GIRK channels were in the range of 0.2 nM to 30 nM for D3 receptors."}, "D2S dopamine receptor [2]": {"molecular_target": "T1, D2S dopamine receptor", "test": "GIRK channel activation, whole cell voltage clamp, AtT-20 cells stably expressing D2S", "assay_type": "cell-based", "settings": "for GIRK channel activation: agonist type: versus full agonist quinpirole", "method": "The activation of the GIRK channels was measured electrophysiologically using whole cell voltage clamp recording (Kuzhikandathil et al., 2004, Mol. Cell. Neurosci. 26:144-155). The GIRK channel responses elicited with new ligands were compared to quinpirole, a classical full agonist of D2, D3 and D4 dopamine receptors. The adenylyl cyclase inhibition was determined using a commercially available ELISA assay (Westrich & Kuzhikandathil, 2007, Biochim. Biophys. Acta-Mol. Cell. Res. 1773:1747-1758).\nIn the first assay, whole cell voltage clamp recording is used to measure GIRK response to increasing concentrations of the lead compound (0.01 nM to 3,000 nM dose range). The EC50 values for each receptor subtype is determined by fitting the data points using the Hill equation.\nas §1\n(§3) Agonist-activated currents were measured by the whole-cell patch clamp technique in voltage clamp and current clamp mode as described previously (Kuzhikandathil & Oxford, 2000, J. Gen. Physiol. 115:697-706; Kuzhikandathil et al., 1998, Mol. Cell. Neurosci. 12:390-402; Kuzhikandathil & Bartoszyk, 2006, Neuropharm. 51:873-884; Westrich & Kuzhikandathil, 2007, Biochim. Biophys. Acta-MCR 1773:1747-1758; Kuzhikandathil et al., 2004, Mol. Cell. Neurosci. 26:144-155; Westrich et al., 2010, Biochem. Pharmacol. 79:897-907). Drug solutions were delivered to cells via a multi-barreled micropipette array. The current responses were normalized to the cell capacitance, to account for variation in cell size.\nas §2"}, "D4.2 dopamine receptor": {"molecular_target": "D4.2 dopamine receptor (Homo sapiens (Human), UniProt P21917, DEL265-296)", "sequence (P21917 other isoform, or with tags, fused parts or gaps del 265-296)": "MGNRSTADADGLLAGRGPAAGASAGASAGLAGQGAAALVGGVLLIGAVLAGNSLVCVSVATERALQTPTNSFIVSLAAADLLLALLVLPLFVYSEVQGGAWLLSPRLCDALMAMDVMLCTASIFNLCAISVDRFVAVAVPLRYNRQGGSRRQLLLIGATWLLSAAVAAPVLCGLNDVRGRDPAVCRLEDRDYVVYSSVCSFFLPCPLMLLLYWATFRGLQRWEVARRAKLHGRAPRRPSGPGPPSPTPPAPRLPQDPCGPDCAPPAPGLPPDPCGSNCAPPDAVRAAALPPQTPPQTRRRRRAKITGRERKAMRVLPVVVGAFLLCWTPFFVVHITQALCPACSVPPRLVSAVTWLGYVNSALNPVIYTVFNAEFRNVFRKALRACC", "assay_type": "cell-based", "method": "The EC50 values for each receptor subtype is determined by fitting the data points using the Hill equation.\nAtT-20 mouse pituitary cells were grown in Ham's F10 medium with 5% FBS, 10% heat-inactivated horse serum, 2 mM glutamine and 50 μg/ml gentamicin (Invitrogen, Carlsbad, Calif.). AtT-20 cells stabling expressing the human D2S, D2L, D3, and D4.2 and receptor were maintained in the above F10 culture media supplemented with 500 μg/ml G418 (Invitrogen). For electrophysiological characterization, cells were plated onto glass coverslips coated with 40 μg/ml poly L-lysine (Sigma-Aldrich). […] Physiol. […] Neurosci. […] Biophys. […] Neurosci.\nDrug solutions were delivered to cells via a multi-barreled micropipette array. The current responses were normalized to the cell capacitance, to account for variation in cell size.\nTo compare the functional effects of the new class of D3 receptor agonists, PBZI (Table 2) and ES609 (Table 3) were tested on AtT-20 cells stably expressing human D3, D2S, D2L or D4.2."}, "parental AtT-20 cells": {"tested_on": "parental AtT-20 cells", "test": "GIRK response in parental (non-transfected) AtT-20 cells", "assay_type": "cell-based, mouse", "settings": "300 nM, no exogenous D3 receptor expression", "method": "To determine whether a compound is an agonist of the D3 dopamine receptor the AtT-20 neuroendocrine cell line that stably expresses the human D3 receptors is used. In the initial screen, the ability of 300 nM lead compound to activate G-protein coupled inward rectifier potassium (GIRK) channels (FIG. 1) is measured using whole cell voltage clamp recording. The protocol has been previously used for performing whole cell voltage clamp and measuring agonist-induced GIRK response. The acute ligand-induced GIRK currents are compared to that elicited by equivalent concentration of native agonist dopamine or full agonist quinpirole. The specificity of the response is determined by measuring GIRK response elicited by the lead compound in non-transfected AtT-20 cells and also in the presence of D2-like dopamine receptor antagonist eticlopride and D3 receptor selective antagonist GR218231 ((+)-(2R)-1,2,3,4-tetrahydro-6-[[(4-methoxyphenyl)sulfonyl]methyl]-N,N-dipropyl-2-naphthalenamine). To be considered for further development, the lead compound should generate a GIRK response that is equal to or greater than that elicited by equivalent concentration (300 nM) of dopamine or quinpirole.\nAtT-20 mouse pituitary cells were grown in Ham's F10 medium with 5% FBS, 10% heat-inactivated horse serum, 2 mM glutamine and 50 μg/ml gentamicin (Invitrogen, Carlsbad, Calif.). AtT-20 cells stabling expressing the human D2S, D2L, D3, and D4.2 and receptor were maintained in the above F10 culture media supplemented with 500 μg/ml G418 (Invitrogen). […]\nas §3, with “Drug solutions were delivered to cells via a multi-barreled micropipette array. The current responses were normalized to the cell capacitance, to account for variation in cell size.” left out"}, "D4.2": {"molecular_target": "D4.2", "settings": "Scheideler et al., 1997; cited from earlier work"}}, "note": "Where “and” joins values, the source holds several entries; their conditions need not be identical. Equal entries are not always repeated. Where two headings read alike, the source gives them in different places. Marks after values point to notes of the source that are not given here."}
{"smiles": "CC(N)CCc1ccccc1Cl", "note": "(stereo not shown) [ES609]", "values": [{"measurement": "Adenylyl cyclase inhibition Ratio of ES609 to quinpirole response (at 300 nM)", "setting": "D2S dopamine receptor [1]; 300 nM", "value": "0.29*"}, {"measurement": "EC50", "setting": "D2S dopamine receptor [1]", "value": 2.4, "unit": "nM"}, {"measurement": "Adenylyl cyclase inhibition: agonist type", "setting": "D2S dopamine receptor [1]", "value": "partial agonists"}, {"measurement": "Adenylyl cyclase inhibition: agonist type", "setting": "D2S dopamine receptor [1]; listed as ES0609", "value": "Partial"}, {"measurement": "GIRK current compared with quinpirole-induced current", "setting": "D2S dopamine receptor [2]; 100 nM", "value": "significantly less than the quinpirole-induced current"}, {"measurement": "GIRK channel activation Ratio of ES609 to quinpirole response (at 300 nM)", "setting": "D2S dopamine receptor [2]; 300 nM", "value": "0.30*"}, {"measurement": "GIRK channel activation: agonist type", "setting": "D2S dopamine receptor [2]", "value": "partial agonists"}, {"measurement": "GIRK channel activation: agonist type", "setting": "D2S dopamine receptor [2]; listed as ES0609", "value": "Partial"}, {"measurement": "GIRK channel activation: agonist type", "setting": "D4.2 dopamine receptor", "value": "elicited no response"}, {"measurement": "GIRK channel activation EC50", "setting": "D4.2 dopamine receptor; AtT-20 cells, D4.2", "value": "No response"}, {"measurement": "GIRK channel activation Ratio of ES609 to quinpirole response (at 300 nM)", "setting": "D4.2 dopamine receptor; D4.2, 300 nM", "value": "0^††"}, {"measurement": "GIRK response at 300 nM", "setting": "D4.2 dopamine receptor; D4.2, 300 nM", "value": "^††300 nM ES609 elicits no GIRK response; but, 300 nM quinpirole elicits a full GIRK response."}, {"measurement": "GIRK channel activation: agonist type", "setting": "D4.2 dopamine receptor; listed as ES0609", "value": "no response"}, {"measurement": "GIRK currents in parental AtT-20 cells", "setting": "parental AtT-20 cells", "value": "neither 300 nM PBZI (hatched bar) nor 300 nM ES609 (cross hatched bar) induced GIRK currents"}, {"measurement": "GIRK currents in parental AtT-20 cells", "setting": "parental AtT-20 cells; listed as ES 609", "value": "did not elicit GIRK currents"}]}
{"smiles": "CCCN1CC[C@@H]2c3cc(O)ccc3CC[C@@H]21", "note": "[PBZI, (3aS,9bR)-3-propyl-1,2,3a,4,5,9b-hexahydrobenzo[e]indol-8-ol]", "values": [{"measurement": "Adenylyl cyclase inhibition Ratio of PBZI to quinpirole response (at 300 nM)", "setting": "D2S dopamine receptor [1]; 300 nM", "value": "0.29*"}, {"measurement": "EC50", "setting": "D2S dopamine receptor [1]", "value": "140 nM and > 150 nM"}, {"measurement": "Adenylyl cyclase inhibition: agonist type", "setting": "D2S dopamine receptor [1]", "value": "partial agonists"}, {"measurement": "GIRK channel activation Ratio of PBZI to quinpirole response (at 300 nM)", "setting": "D2S dopamine receptor [2]; 300 nM", "value": "0.48*"}, {"measurement": "EC50", "setting": "D2S dopamine receptor [2]; AtT-20 cells", "value": 53, "unit": "nM"}, {"measurement": "GIRK channel activation: agonist type", "setting": "D2S dopamine receptor [2]", "value": "partial agonists"}, {"measurement": "GIRK channel activation: agonist type", "setting": "D4.2 dopamine receptor", "value": "partial agonist"}, {"measurement": "GIRK channel activation Ratio of PBZI to quinpirole response (at 300 nM)", "setting": "D4.2 dopamine receptor; D4.2, 300 nM", "value": "0.35*"}, {"measurement": "GIRK currents in parental AtT-20 cells", "setting": "parental AtT-20 cells", "value": "neither 300 nM PBZI (hatched bar) nor 300 nM ES609 (cross hatched bar) induced GIRK currents"}, {"measurement": "Ki", "setting": "D4.2", "value": 280, "unit": "nM"}]}
